Reference: patent US20260271924A1, “COMPOSITIONS FOR MODULATING PLANT GROWTH AND STRESS TOLERANCE, AND METHODS OF USE THEREOF” (The Regents of the University of California, priority 2023, published 2026)
Entries after “also recorded” stand apart in the source; their conditions may differ.

Tests used:
Arabidopsis [1] = assay: Arabidopsis root growth under itaconate combined with stress agents or sucrose; type: in vivo, Arabidopsis thaliana; settings: 50 mM NaCl; 100 mM Mannitol
Experimental: (§1) Plant Growth. For the Arabidopsis treatments, compounds were added to sterile ½× Murashige and Skoog (MS) plant growth media, and the pH was adjusted to 5.7 using potassium hydroxide. Seeds were sterilized using 20% bleach and sowed on the treated plant growth media. Plants were incubated in a 16 h/8 h day/night cycle growth chamber at 22° C. for 7-14 days prior to phenotyping. For the maize treatments, compounds were added to water, and the pH was adjusted to 5.7 using potassium hydroxide. Maize seeds were sterilized using 20% bleach and grown in large size seed germination pouches (see, e.g., mega-international.com) with the treatment. Plants were incubated in a 16 h/8 h day/night cycle growth chamber at 28° C. night/21° C. day for 5 days prior to phenotyping.

Arabidopsis [2] = assay: Arabidopsis seedling growth / primary root length on treated ½× MS media; type: in vivo, Arabidopsis thaliana
Experimental: as §1
Stock Solutions. 100 mM stock solutions of the various metabolites and itaconate were produced. Metabolites were dissolved using Milli-Q (MQ) water and the pH was adjusted to 5.7-5.8 using 1M KOH. The Ocyl-itaconate stock solution was dissolved in dimethyl sulfoxide (DMSO). Arabidopsis seeds were sterilized using 20% bleach and allowed to mix for 7 minutes. After mixing, seeds were rinsed with sterilized water 6 times. Sterilized seedlings were then placed on media filled square plates. Micropore tape was used to wrap the plates and aluminum foil was used to cover plates, before stratifying for 2 days in a 4° C. chamber. After stratification, seedlings were placed in 22° C. light chamber at intensity 625 lux for 7 days before scanning. All quantifications of the seedlings were performed on FIJI Image J. Seedlings with interesting phenotypes were then transferred to soil in 22° C. conditions with light intensity 625 lux.

[3] = system: root meristem and mature cells; assay: Aconitate treatment of roots; type: in vivo; settings: treatment with aconitate
DR5-GFP = assay: Auxin reporter line imaging; type: in vivo, Arabidopsis thaliana; settings: 4-OI treatment; compared to the control
Excerpt: (§2) Confocal Images. For Arabidopsis, most of the roots were stained by PI (Propidium iodide). Hormone reporter lines (GFP, 488 nm), hydrogen peroxide sensor lines (GFP, 488 nm; CFP, 408 nm) (see, Shi et al., Nat. Commun. 13:5040, 2022), ATP sensor lines (DeCol et al., eLife, 6:e26770, 2017) were observed under a Leica SP8 confocal microscope (CFP, 439 nm; VENUS, 516 nm).

pCYCB1; 1-CYCB1; 1-GFP = assay: Cell cycle reporter line imaging; type: in vivo, Arabidopsis thaliana; settings: 50 μM 4-OI; compared to the control
Excerpt: as §2

maize = assay: Maize seedling growth under treatment in seed germination pouches; type: in vivo
Experimental: as §1

ATP levels = assay: Fluorescent ATP reporter line imaging; type: in vivo, Arabidopsis thaliana; settings: 4-OI; meristem zone
Excerpt: as §2

superoxide = assay: NBT staining of Arabidopsis roots (ROS); type: in vivo, Arabidopsis thaliana; settings: NBT and H2DCFDA staining; 1 mM itaconate, 50 μM 4-OI
Experimental: ROS staining. For ROS staining, superoxides were detected using NBT; and hydrogen peroxide was detected using 2′,7′-dichlorodihydrofluorescein diacetate (H2DCFDA).
NBT staining procedures were carried out as described in Kumar et al., Bio-protcol, 4:e1108, 2014. Briefly, a 0.2% solution of NBT was made in a 50 mM sodium phosphate buffer. This solution was used to soak seedlings for 2 minutes in the dark and was then rinsed using deionized (DI) water. Images were taken on a with a 1× objective with a Nikon SMZ1270 Stereo microscope.

6×ABRE-R:erGFP = assay: ABA signaling reporter line imaging; type: in vivo, Arabidopsis thaliana; settings: 4-OI treatment
Excerpt: as §2

TCSn-GFP = assay: Cytokinin signaling reporter line imaging; type: in vivo, Arabidopsis thaliana
Excerpt: as §2

pPIN1-PIN1-GFP = assay: Auxin transport reporter line imaging; type: in vivo, Arabidopsis thaliana; settings: 4-OI treatment
Excerpt: as §2

[Cl-].[Na+] [NaCl, sodium chloride]
root growth under stress agent alone (Arabidopsis [1]): decrease root growth

CC(CC(=O)O)C(=O)O (stereo not shown) [2-methyl succinate, reference compound]
impact on Arabidopsis (primary root length) (Arabidopsis [2]; 0.5 mM 2-methyl succinate): does not impact Arabidopsis | impact on Arabidopsis (primary root length) (Arabidopsis [2]; 2 mM 2-methyl succinate): does not impact Arabidopsis

OC[C@@H](O)[C@@H](O)[C@H](O)[C@H](O)CO [mannitol]
root growth under stress agent alone (Arabidopsis [1]): decrease root growth

O=C(O)/C=C(/CC(=O)O)C(=O)O [aconitate]
length of mature cells [3]: increased the length of mature cells | meristem cell number [3]: inhibited meristem cell number

C=C(CC(=O)OCCCCCCCC)C(=O)O [4-OI, 4-octyl itaconate]
DR5-GFP fluorescent intensity (DR5-GFP): significantly induced; also recorded: is increased | number of actively dividing cells (pCYCB1; 1-CYCB1; 1-GFP): significant reduction | maize root growth (maize; 50 μM 4-OI for 5 days): enhanced maize root growth | maize shoot growth (maize; 50 μM 4-OI for 5 days): without affecting shoot growth | ATP levels (ATP levels): increased ATP levels | Arabidopsis growth (Arabidopsis [2]; 4-OI, 4 day old seedlings treated for 3 days): inhibits Arabidopsis growth in a dose-dependent manner | plant growth (Arabidopsis [2]; Arabidopsis, 50 μM 4-OI): nearly arrested plant growth | root gravitropic orientation (Arabidopsis [2]; Arabidopsis, 4-OI (50 μM)): roots lose their gravitropic orientation; also recorded: defective gravitropic phenotype | ROS levels in Arabidopsis roots (superoxide): decrease in ROS levels; also recorded: repress | 6×ABARE-R:erGFP intensity in the roots (6×ABRE-R:erGFP): induces | TCSn-GFP signal in the QC (TCSn-GFP; 4-OI treatment): increases the signal in the QC | TCSn-GFP intensity in the columella (TCSn-GFP; itaconate or 4-OI treatment): decrease; also recorded: reduces | pPIN1-PIN1-GFP fluorescent intensity and area (pPIN1-PIN1-GFP): reduces both the pPIN1-PIN1-GFP fluorescent intensity and area

C#CCCCCCCOC(=O)CC(=C)C(=O)O [ITalk, itaconate-alkyne, reference compound]
phenotype induced by ITalk treatment (Arabidopsis [2]; Arabidopsis, 1 μM and 10 μM iTalk): closely resembles that of 4-OI

C=C(CC(=O)O)C(=O)O [itaconate]
increased growth (maize; maize treated with itaconate, p=0.01): 30% | decreased growth (Arabidopsis [2]; Arabidopsis, same concentration of itaconate as maize, p<0.0001): 25%
